Tested on: A375 multi-cell spheroids with HUVEC/MSC, viability
Experiment: Anticancer human tumor A375 cell line growth inhibition [GQUAD];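 also: spheroids exposed to compounds for seven days before readout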
Settings: for IC50: curve of first compound; for viability, T/C: stronger effect = lower value
Procedure, shortened: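 Viability of tumor cells grown as complex spheroids with endothelial and stromal cells, exposed to drug combinations. Top concentration at or near clinical Cmax (else 10 microM), diluted in half-log increments.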

[1] = second compound 0.0316 µM, first compound 0.0316 µM
[2] = second compound 0.0316 µM, first compound 0.1 µM
[3] = second compound 0.0316 µM, first compound 0.316 µM
[4] = second compound 0.0316 µM, first compound 1 µM
[5] = second compound 0.0316 µM, first compound 3.16 µM
[6] = second compound 0.0316 µM, first compound 10 µM
[7] = second compound 0.1 µM, first compound 0.0316 µM
[8] = second compound 0.1 µM, first compound 0.1 µM
[9] = second compound 0.1 µM, first compound 0.316 µM
[10] = second compound 0.1 µM, first compound 1 µM
[11] = second compound 0.1 µM, first compound 3.16 µM
[12] = second compound 0.1 µM, first compound 10 µM
[13] = second compound 0.316 µM, first compound 0.0316 µM
[14] = second compound 0.316 µM, first compound 0.1 µM
[15] = second compound 0.316 µM, first compound 0.316 µM
[16] = second compound 0.316 µM, first compound 1 µM
[17] = second compound 0.316 µM, first compound 3.16 µM
[18] = second compound 0.316 µM, first compound 10 µM
[19] = second compound 1 µM, first compound 0.0316 µM
[20] = second compound 1 µM, first compound 0.1 µM
[21] = second compound 1 µM, first compound 0.316 µM
[22] = second compound 1 µM, first compound 1 µM
[23] = second compound 1 µM, first compound 3.16 µM
[24] = second compound 1 µM, first compound 10 µM
[25] = second compound 3.16 µM, first compound 0.0316 µM
[26] = second compound 3.16 µM, first compound 0.1 µM
[27] = second compound 3.16 µM, first compound 0.316 µM
[28] = second compound 3.16 µM, first compound 1 µM
[29] = second compound 3.16 µM, first compound 3.16 µM
[30] = second compound 3.16 µM, first compound 10 µM
[31] = second compound 10 µM, first compound 0.0316 µM
[32] = second compound 10 µM, first compound 0.1 µM
[33] = second compound 10 µM, first compound 0.316 µM
[34] = second compound 10 µM, first compound 1 µM
[35] = second compound 10 µM, first compound 3.16 µM
[36] = second compound 10 µM, first compound 10 µM

Cc1cccc(N(C)C(=O)C2C(O)CCN2c2nc(C)cc(C(F)(F)F)c2C#N)c1 (stereo unspecified) + CN(C)c1ccc(Nc2c3ccc(NC(=O)CCN4CCCC4)cc3nc3cc(NC(=O)CCN4CCCC4)ccc23)cc1
IC50 (second compound 0.0316 µM): > 10 µM
IC50 (second compound 0.1 µM): > 10 µM
IC50 (second compound 0.316 µM): > 10 µM
IC50 (second compound 1 µM): > 10 µM
IC50 (second compound 3.16 µM): > 10 µM
IC50 (second compound 10 µM): > 10 µM
viability, T/C [1]: 103%
viability, T/C [2]: 98.6%
viability, T/C [3]: 104%
viability, T/C [4]: 105%
viability, T/C [5]: 105%
viability, T/C [6]: 102%
viability, T/C [7]: 113%
viability, T/C [8]: 104%
viability, T/C [9]: 99.8%
viability, T/C [10]: 97%
viability, T/C [11]: 107%
viability, T/C [12]: 102%
viability, T/C [13]: 113%
viability, T/C [14]: 101%
viability, T/C [15]: 101%
viability, T/C [16]: 109%
viability, T/C [17]: 99.1%
viability, T/C [18]: 95.7%
viability, T/C [19]: 107%
viability, T/C [20]: 98.3%
viability, T/C [21]: 97.3%
viability, T/C [22]: 96.9%
viability, T/C [23]: 104%
viability, T/C [24]: 97.3%
viability, T/C [25]: 117%
viability, T/C [26]: 106%
viability, T/C [27]: 93.9%
viability, T/C [28]: 101%
viability, T/C [29]: 98%
viability, T/C [30]: 100%
viability, T/C [31]: 95.7%
viability, T/C [32]: 96.3%
viability, T/C [33]: 89.9%
viability, T/C [34]: 93.7%
viability, T/C [35]: 96.5%
viability, T/C [36]: 74.3%

Cn1ncnc1[C@H]1c2n[nH]c(=O)c3cc(F)cc(c23)N[C@@H]1c1ccc(F)cc1 + CN(C)c1ccc(Nc2c3ccc(NC(=O)CCN4CCCC4)cc3nc3cc(NC(=O)CCN4CCCC4)ccc23)cc1
IC50 (second compound 0.0316 µM): > 0.316 µM
IC50 (second compound 0.1 µM): > 0.316 µM
IC50 (second compound 0.316 µM): > 0.316 µM
IC50 (second compound 1 µM): > 0.316 µM
IC50 (second compound 3.16 µM): > 0.316 µM
IC50 (second compound 10 µM): > 0.316 µM
viability, T/C (second compound 0.0316 µM, first compound 0.000999 µM): 96.8%
viability, T/C (second compound 0.0316 µM, first compound 0.00316 µM): 104%
viability, T/C (second compound 0.0316 µM, first compound 0.00999 µM): 105%
viability, T/C [1]: 104%
viability, T/C (second compound 0.0316 µM, first compound 0.0999 µM): 105%
viability, T/C [3]: 97.1%
viability, T/C (second compound 0.1 µM, first compound 0.000999 µM): 102%
viability, T/C (second compound 0.1 µM, first compound 0.00316 µM): 102%
viability, T/C (second compound 0.1 µM, first compound 0.00999 µM): 97.2%
viability, T/C [7]: 101%
viability, T/C (second compound 0.1 µM, first compound 0.0999 µM): 103%
viability, T/C [9]: 84.7%
viability, T/C (second compound 0.316 µM, first compound 0.000999 µM): 115%
viability, T/C (second compound 0.316 µM, first compound 0.00316 µM): 93.6%
viability, T/C (second compound 0.316 µM, first compound 0.00999 µM): 101%
viability, T/C [13]: 110%
viability, T/C (second compound 0.316 µM, first compound 0.0999 µM): 107%
viability, T/C [15]: 98.8%
viability, T/C (second compound 1 µM, first compound 0.000999 µM): 111%
viability, T/C (second compound 1 µM, first compound 0.00316 µM): 105%
viability, T/C (second compound 1 µM, first compound 0.00999 µM): 101%
viability, T/C [19]: 110%
viability, T/C (second compound 1 µM, first compound 0.0999 µM): 116%
viability, T/C [21]: 110%
viability, T/C (second compound 3.16 µM, first compound 0.000999 µM): 107%
viability, T/C (second compound 3.16 µM, first compound 0.00316 µM): 98%
viability, T/C (second compound 3.16 µM, first compound 0.00999 µM): 99.8%
viability, T/C [25]: 105%
viability, T/C (second compound 3.16 µM, first compound 0.0999 µM): 106%
viability, T/C [27]: 106%
viability, T/C (second compound 10 µM, first compound 0.000999 µM): 98.3%
viability, T/C (second compound 10 µM, first compound 0.00316 µM): 97.5%
viability, T/C (second compound 10 µM, first compound 0.00999 µM): 97.1%
viability, T/C [31]: 107%
viability, T/C (second compound 10 µM, first compound 0.0999 µM): 104%
viability, T/C [33]: 97.9%

O=C(c1cc(Cc2n[nH]c(=O)c3ccccc23)ccc1F)N1CCN(C(=O)C2CC2)CC1 + CN(C)c1ccc(Nc2c3ccc(NC(=O)CCN4CCCC4)cc3nc3cc(NC(=O)CCN4CCCC4)ccc23)cc1
IC50 (second compound 0.0316 µM): > 10 µM
IC50 (second compound 0.1 µM): > 10 µM
IC50 (second compound 0.316 µM): > 10 µM
IC50 (second compound 1 µM): > 10 µM
IC50 (second compound 3.16 µM): > 10 µM
IC50 (second compound 10 µM): > 10 µM
viability, T/C [1]: 104%
viability, T/C [2]: 95.7%
viability, T/C [3]: 113%
viability, T/C [4]: 99.9%
viability, T/C [5]: 103%
viability, T/C [6]: 81.1%
viability, T/C [7]: 104%
viability, T/C [8]: 102%
viability, T/C [9]: 103%
viability, T/C [10]: 100%
viability, T/C [11]: 102%
viability, T/C [12]: 75.6%
viability, T/C [13]: 101%
viability, T/C [14]: 101%
viability, T/C [15]: 102%
viability, T/C [16]: 105%
viability, T/C [17]: 97.6%
viability, T/C [18]: 77.6%
viability, T/C [19]: 97.1%
viability, T/C [20]: 102%
viability, T/C [21]: 93.8%
viability, T/C [22]: 103%
viability, T/C [23]: 102%
viability, T/C [24]: 86.8%
viability, T/C [25]: 100%
viability, T/C [26]: 97.5%
viability, T/C [27]: 100%
viability, T/C [28]: 101%
viability, T/C [29]: 103%
viability, T/C [30]: 73.6%
viability, T/C [31]: 100%
viability, T/C [32]: 96.4%
viability, T/C [33]: 98.8%
viability, T/C [34]: 103%
viability, T/C [35]: 92.9%
viability, T/C [36]: 66.7%

From PubChem BioAssay AID2060485 (Molecular Pharmacology Branch, DTP, NCI, 2025)
